The source of these data is ChEMBL document CHEMBL3046627, “Synthesis and in vitro study of antibacterial, antifungal activities of some novel bisquinolines” (2013).

Values after ≈ are worked out from the molar mass of the structure shown. Active and inactive are the calls of the source.

The subject of assay [1] is Aspergillus niger. Nature of the assay: Antifungal activity against Aspergillus niger assessed as growth inhibition after 96 hr by agar dilution method. The assay is classed as functional. A general note: In agar dilution, organisms are placed on agar that contains the substance at set levels.
The test system of assay [2] is Escherichia coli. The assay is described as follows: Antibacterial activity against Escherichia coli 319 assessed as growth inhibition after 24 hr by agar dilution method. The assay is classed as functional.
For assay [3], the system named is Micrococcus luteus. Nature of the assay: Antibacterial activity against Micrococcus luteus ATCC 9341 assessed as growth inhibition at MIC after 24 hr by agar dilution method. It counts as functional.
Assay [4] deals with Cryptococcus neoformans. The assay is described as follows: Antifungal activity against Cryptococcus neoformans assessed as growth inhibition after 96 hr by agar dilution method. It counts as functional.
Assay [5] has as its system Klebsiella pneumoniae. The assay is described as follows: Antibacterial activity against Klebsiella pneumoniae J/I/4 assessed as growth inhibition at MIC after 24 hr by agar dilution method. The assay is classed as functional.
Assay [6] deals with Staphylococcus aureus. Nature of the assay: Antibacterial activity against Staphylococcus aureus 29737 assessed as growth inhibition after 24 hr by agar dilution method. It counts as functional.
Assay [7] concerns Klebsiella pneumoniae. Nature of the assay: Antibacterial activity against Klebsiella pneumoniae J/I/4 assessed as growth inhibition after 24 hr by agar dilution method. It counts as functional.
Assay [8] concerns Staphylococcus aureus. The assay is described as follows: Antibacterial activity against Staphylococcus aureus 29737 assessed as growth inhibition at MIC after 24 hr by agar dilution method. The assay is classed as functional.
The subject of assay [9] is Klebsiella pneumoniae. The assay is described as follows: Antibacterial activity against Klebsiella pneumoniae J/I/4 assessed as growth inhibition at MIC. It counts as functional, organism-based. Conditions: TDE = time-dependent effect.
Assay [10] relates to Vibrio cholerae. Nature of the assay: Antibacterial activity against Vibrio cholerae 759 assessed as growth inhibition at MIC after 24 hr by agar dilution method. The assay is classed as functional.
Assay [11] has as its system Pseudomonas aeruginosa. Nature of the assay: Antibacterial activity against Pseudomonas aeruginosa 71 assessed as growth inhibition after 24 hr by agar dilution method. It counts as functional.
Assay [12] concerns Candida albicans. Nature of the assay: Antifungal activity against Candida albicans assessed as growth inhibition after 96 hr by agar dilution method. It counts as functional.
Assay [13] concerns Shigella dysenteriae. The assay is described as follows: Antibacterial activity against Shigella dysenteriae 15 assessed as growth inhibition after 24 hr by agar dilution method. It counts as functional.
The test system of assay [14] is Micrococcus luteus. The assay is described as follows: Antibacterial activity against Micrococcus luteus ATCC 9341 assessed as growth inhibition after 24 hr by agar dilution method. It counts as functional.
Assay [15] has as its system Pseudomonas aeruginosa. The assay is described as follows: Antibacterial activity against Pseudomonas aeruginosa 71 assessed as growth inhibition at MIC after 24 hr by agar dilution method. It counts as functional.
The test system of assay [16] is Escherichia coli. Nature of the assay: Antibacterial activity against Escherichia coli 319 assessed as growth inhibition at MIC after 24 hr by agar dilution method. The assay is classed as functional.
Assay [17] relates to Klebsiella pneumoniae. The assay is described as follows: Antibacterial activity against Klebsiella pneumoniae J/I/4 assessed as cell wall deformation at MIC after 24 hr by scanning electron microscopic analysis relative to untreated control. It counts as functional, organism-based.
Assay [18] has as its system Candida tropicalis. The assay is described as follows: Antifungal activity against Candida tropicalis assessed as growth inhibition after 96 hr by agar dilution method. It counts as functional.
Assay [19] concerns Klebsiella pneumoniae. The assay is described as follows: Antibacterial activity against Klebsiella pneumoniae J/I/4 assessed as cell agglomeration at MIC after 24 hr by scanning electron microscopic analysis relative to untreated control. The assay is classed as functional, organism-based.
The test system of assay [20] is Bacillus pumilus. The assay is described as follows: Antibacterial activity against Bacillus pumilus 11778 assessed as growth inhibition after 24 hr by agar dilution method. It counts as functional.
Assay [21] deals with Vibrio cholerae. The assay is described as follows: Antibacterial activity against Vibrio cholerae 759 assessed as growth inhibition after 24 hr by agar dilution method. The assay is classed as functional.
For assay [22], the system named is Shigella dysenteriae. Nature of the assay: Antibacterial activity against Shigella dysenteriae 15 assessed as growth inhibition at MIC after 24 hr by agar dilution method. It counts as functional.
The test system of assay [23] is Bacillus pumilus. Nature of the assay: Antibacterial activity against Bacillus pumilus 11778 assessed as growth inhibition at MIC after 24 hr by agar dilution method. It counts as functional.
Assay [24] has as its system Aspergillus niger. The assay is described as follows: Antifungal activity against Aspergillus niger assessed as growth inhibition at MIC after 96 hr by agar dilution method. It counts as functional.
The test system of assay [25] is Candida tropicalis. The assay is described as follows: Antifungal activity against Candida tropicalis assessed as growth inhibition at MIC after 96 hr by agar dilution method. It counts as functional.
Assay [26] deals with Candida albicans. The assay is described as follows: Antifungal activity against Candida albicans assessed as growth inhibition at MIC after 96 hr by agar dilution method. The assay is classed as functional.
In assay [27] the test system is Cryptococcus neoformans. The assay is described as follows: Antifungal activity against Cryptococcus neoformans assessed as growth inhibition at MIC after 96 hr by agar dilution method. It counts as functional.
The mark [28] stands for this setting: Staphylococcus aureus, 29737, 24 h.
[29] abbreviates: Pseudomonas aeruginosa, 71, 24 h.

One may read the MIC as the smallest concentration in the dilution series that meets the test's criterion for growth inhibition. As for `Clc1ccc(OCc2cc3ccccc3cc2COc2ccc(Cl)c3cccnc23)c2ncccc12`, the MIC result in assay [1], in assay [4], in assay [12] and in [18] was “inactive” in each case. Besides, the MIC was 32 µg/mL (≈ 62.6 µM) in [2] (Escherichia coli, 319, 24 h); more than 500 µg/mL in [6] (setting [28]); 32 µg/mL (≈ 62.6 µM) in [7] (J/I/4, 24 h); more than 500 µg/mL in [11] (setting [29]); more than 500 µg/mL in assay [13] (Shigella dysenteriae, 15, 24 h); 32 µg/mL (≈ 62.6 µM) in [14] (ATCC 9341, 24 h). Besides, the minimum inhibitory concentration (MIC) in assay [20] (Bacillus pumilus, 11778, 24 h) is 32 µg/mL (≈ 62.6 µM); in assay [21] (Vibrio cholerae, 759, 24 h), 128 µg/mL (≈ 250 µM). Moreover, the “diameter of the inhibition zone (DIZ)” value in [3] stood at 8 mm; in [5], 7 mm; in [8] it was 6 mm; in assay [10] it was 8 mm; in assay [16], 7.2 mm; in assay [23], 8 mm. The “growth inhibition (GI)” value in [9] was “tde”. The “diameter of the inhibition zone (DIZ)” value in [15] and in assay [22] was “inactive” each time. Moreover, the outcome in assay [17] and in assay [19] was Active.

Regarding `Cc1ccc2cccc(OCc3ccccc3COc3cccc4ccc(C)nc34)c2n1`, the MIC in [1] is 1000 µg/mL (≈ 2380 µM); in assay [2] (Escherichia coli, 319, 24 h), more than 1000 µg/mL; in assay [6] (setting [28]) it was 128 µg/mL (≈ 304 µM); in assay [7] (J/I/4, 24 h), 32 µg/mL (≈ 76.1 µM); in [11] (setting [29]) it was more than 500 µg/mL; in [13] (Shigella dysenteriae, 15, 24 h) it was 32 µg/mL (≈ 76.1 µM). The MIC in [14] (ATCC 9341, 24 h) was 128 µg/mL (≈ 304 µM); in assay [18], 2000 µg/mL (≈ 4760 µM); in assay [20] (Bacillus pumilus, 11778, 24 h), more than 500 µg/mL; in [21] (Vibrio cholerae, 759, 24 h), 64 µg/mL (≈ 152 µM). The “diameter of the inhibition zone (DIZ)” value in assay [3] stood at 7 mm; in assay [5] it was 8 mm; in assay [24], 9 mm; in assay [25] it was 7 mm; in [8], 6 mm; in assay [10] it was 8 mm. Also, the “diameter of the inhibition zone (DIZ)” value in [22] amounted to 8 mm; in assay [23], 7 mm. Besides, the MIC entry in assay [4] and in assay [12] was “inactive” each time. Moreover, the “diameter of the inhibition zone (DIZ)” value in [26], in [15], in assay [16] and in [27] was “inactive” throughout.

For `Clc1ccc(OCc2nc3ccccc3nc2COc2ccc(Cl)c3cccnc23)c2ncccc12`, the MIC was 1000 µg/mL (≈ 1950 µM) in [1]; 32 µg/mL (≈ 62.3 µM) in [2] (Escherichia coli, 319, 24 h); more than 500 µg/mL in [6] (setting [28]); more than 500 µg/mL in [7] (J/I/4, 24 h); more than 500 µg/mL in [11] (setting [29]); 1000 µg/mL (≈ 1950 µM) in assay [12]. Moreover, the MIC in assay [13] (Shigella dysenteriae, 15, 24 h) was more than 500 µg/mL; in [14] (ATCC 9341, 24 h) it was 32 µg/mL (≈ 62.3 µM); in assay [18] it was 1500 µg/mL (≈ 2920 µM); in [20] (Bacillus pumilus, 11778, 24 h), 32 µg/mL (≈ 62.3 µM); in [21] (Vibrio cholerae, 759, 24 h) it was more than 500 µg/mL. Also, the “diameter of the inhibition zone (DIZ)” value was 7 mm in assay [3]; 6 mm in assay [5]; 7.5 mm in assay [24]; 7.5 mm in assay [25]; 7.8 mm in assay [26]; 8 mm in assay [16]. In addition, the “diameter of the inhibition zone (DIZ)” value worked out at 6 mm in assay [22] and 8 mm in [23]. Also, in assay [4], the MIC entry was “inactive”. In addition, the “diameter of the inhibition zone (DIZ)” value in assay [8], in assay [10], in assay [15] and in [27] was “inactive” each time.

On to `c1ccc(COc2cccc3cccnc23)c(COc2cccc3cccnc23)c1`, for which the MIC result in assay [1], in assay [4], in [12] and in [18] was “inactive” in each case. In addition, the MIC in [2] (Escherichia coli, 319, 24 h) is more than 500 µg/mL; in assay [6] (setting [28]) it was 32 µg/mL (≈ 81.5 µM); in assay [7] (J/I/4, 24 h) it was 32 µg/mL (≈ 81.5 µM); in [11] (setting [29]), more than 500 µg/mL; in [13] (Shigella dysenteriae, 15, 24 h) it was 32 µg/mL (≈ 81.5 µM); in assay [14] (ATCC 9341, 24 h) it was more than 500 µg/mL. Besides, the MIC in assay [20] (Bacillus pumilus, 11778, 24 h) was 500 µg/mL (≈ 1270 µM); in assay [21] (Vibrio cholerae, 759, 24 h), more than 500 µg/mL. In addition, the “diameter of the inhibition zone (DIZ)” value was determined as 7 mm in assay [3]; 8 mm in [5]; 7.2 mm in assay [8]; 6 mm in assay [15]; 6.5 mm in assay [22]. The “diameter of the inhibition zone (DIZ)” value in assay [24], in assay [25], in assay [10], in assay [26], in assay [16] and in [27] was “inactive” throughout. The “diameter of the inhibition zone (DIZ)” value in [23] is “inactive”.

In the case of `c1cc(COc2cccc3cccnc23)cc(COc2cccc3cccnc23)c1`, the MIC entry in [1], in [2], in [4], in assay [6], in assay [7] and in [11] was “inactive” each time. In addition, the MIC entry in assay [12], in [13], in [14], in assay [18], in [20] and in assay [21] was “inactive” throughout. In addition, the “diameter of the inhibition zone (DIZ)” value in [24], in assay [25], in [26] and in assay [27] was “inactive” each time.

For `Clc1ccc(OCc2cccc(COc3ccc(Cl)c4cccnc34)c2)c2ncccc12`, the MIC in assay [1] was 1000 µg/mL (≈ 2170 µM); in assay [2] (Escherichia coli, 319, 24 h), more than 500 µg/mL; in [6] (setting [28]), 128 µg/mL (≈ 277 µM); in [7] (J/I/4, 24 h), 32 µg/mL (≈ 69.4 µM); in [11] (setting [29]), 256 µg/mL (≈ 555 µM); in [13] (Shigella dysenteriae, 15, 24 h), 32 µg/mL (≈ 69.4 µM). In addition, the minimum inhibitory concentration (MIC) in [14] (ATCC 9341, 24 h) was 64 µg/mL (≈ 139 µM); in assay [18] it was 1000 µg/mL (≈ 2170 µM); in [20] (Bacillus pumilus, 11778, 24 h), more than 500 µg/mL; in assay [21] (Vibrio cholerae, 759, 24 h) it was 256 µg/mL (≈ 555 µM). For the same compound, the “diameter of the inhibition zone (DIZ)” value in [3] is reported as 8 mm; in [5], 6 mm; in [24] it was 8 mm; in [25] it was 7 mm; in [8], 8 mm; in assay [10], 6 mm. Besides, the “diameter of the inhibition zone (DIZ)” value in assay [15] worked out at 6 mm; in assay [22] it was 8 mm. Besides, the MIC result in [4] and in [12] was “inactive” throughout. For the same compound, the “diameter of the inhibition zone (DIZ)” value in assay [26], in assay [16], in [27] and in assay [23] was “inactive” each time.
